What was measured:
[1] = molecular target: Norepinephrine transporter (Rattus norvegicus, UniProt Q9WTR4); assay: Displacement of [3H]nisoxetine from norepinephrine transporter of rat cerebral cortex; type: tissue-based
[2] = molecular target: Monoamine transporters; serotonin & dopamine (Rattus norvegicus) (UniProt P31652+P23977); assay: Selectivity for inhibition of serotonin and dopamine transporters; type: protein assay
[3] = molecular target: Sodium-dependent serotonin transporter (Rattus norvegicus, UniProt P31652); assay: Displacement of [3H]paroxetine from serotonin transporter of rat cerebral cortex; type: tissue-based
Sequence of Sodium-dependent serotonin transporter (P31652 whole entry): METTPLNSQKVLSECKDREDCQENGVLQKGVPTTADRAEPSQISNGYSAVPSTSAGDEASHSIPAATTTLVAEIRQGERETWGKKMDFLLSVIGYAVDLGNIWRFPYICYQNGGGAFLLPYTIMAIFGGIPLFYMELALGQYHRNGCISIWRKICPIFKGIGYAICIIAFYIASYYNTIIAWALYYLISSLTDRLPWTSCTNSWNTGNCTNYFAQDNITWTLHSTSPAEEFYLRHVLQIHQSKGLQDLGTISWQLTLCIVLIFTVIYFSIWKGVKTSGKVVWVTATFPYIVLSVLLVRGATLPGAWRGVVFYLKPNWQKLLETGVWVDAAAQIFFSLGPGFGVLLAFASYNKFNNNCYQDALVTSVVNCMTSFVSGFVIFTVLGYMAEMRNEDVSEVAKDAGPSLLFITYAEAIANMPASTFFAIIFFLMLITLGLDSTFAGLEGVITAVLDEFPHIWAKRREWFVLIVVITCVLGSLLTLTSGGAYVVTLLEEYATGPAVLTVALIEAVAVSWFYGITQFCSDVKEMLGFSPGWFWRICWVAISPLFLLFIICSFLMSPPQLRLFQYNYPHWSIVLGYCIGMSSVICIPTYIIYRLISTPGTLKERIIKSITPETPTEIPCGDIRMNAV

[4] = molecular target: Monoamine transporters; Norepinephrine & serotonin (Rattus norvegicus) (UniProt P31652+Q9WTR4); assay: Selectivity for inhibition of serotonin and norepinephrine transporters; type: protein assay
[5] = molecular target: Sodium-dependent dopamine transporter (Rattus norvegicus, UniProt P23977); assay: Displacement of [3H]GBR-12935 from dopamine transporter of rat caudate-putamen; type: tissue-based
Sequence of Sodium-dependent dopamine transporter (P23977 whole entry): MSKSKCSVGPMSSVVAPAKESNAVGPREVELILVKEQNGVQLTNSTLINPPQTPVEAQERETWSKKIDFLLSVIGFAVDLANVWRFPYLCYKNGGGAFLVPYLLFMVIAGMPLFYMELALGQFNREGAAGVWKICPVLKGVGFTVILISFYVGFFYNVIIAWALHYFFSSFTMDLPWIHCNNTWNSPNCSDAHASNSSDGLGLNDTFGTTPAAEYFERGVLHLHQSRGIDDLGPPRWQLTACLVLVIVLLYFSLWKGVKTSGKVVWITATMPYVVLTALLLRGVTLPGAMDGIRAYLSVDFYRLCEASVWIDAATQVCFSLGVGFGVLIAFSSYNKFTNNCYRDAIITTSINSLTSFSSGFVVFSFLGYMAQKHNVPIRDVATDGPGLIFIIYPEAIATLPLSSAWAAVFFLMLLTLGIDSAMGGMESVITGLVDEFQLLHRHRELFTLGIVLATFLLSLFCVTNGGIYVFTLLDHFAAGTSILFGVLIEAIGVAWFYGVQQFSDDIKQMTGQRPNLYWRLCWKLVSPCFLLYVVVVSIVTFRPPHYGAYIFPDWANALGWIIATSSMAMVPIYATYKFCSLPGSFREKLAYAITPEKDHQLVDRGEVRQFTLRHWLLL

Sequence of Monoamine transporters; serotonin & dopamine (Rattus norvegicus) (P23977 whole entry, looked up): as the sequence (P23977 whole entry) above
Sequence of Monoamine transporters; serotonin & dopamine (Rattus norvegicus) (P31652 whole entry, looked up): as the sequence (P31652 whole entry) above
Sequence of Norepinephrine transporter (Q9WTR4 whole entry): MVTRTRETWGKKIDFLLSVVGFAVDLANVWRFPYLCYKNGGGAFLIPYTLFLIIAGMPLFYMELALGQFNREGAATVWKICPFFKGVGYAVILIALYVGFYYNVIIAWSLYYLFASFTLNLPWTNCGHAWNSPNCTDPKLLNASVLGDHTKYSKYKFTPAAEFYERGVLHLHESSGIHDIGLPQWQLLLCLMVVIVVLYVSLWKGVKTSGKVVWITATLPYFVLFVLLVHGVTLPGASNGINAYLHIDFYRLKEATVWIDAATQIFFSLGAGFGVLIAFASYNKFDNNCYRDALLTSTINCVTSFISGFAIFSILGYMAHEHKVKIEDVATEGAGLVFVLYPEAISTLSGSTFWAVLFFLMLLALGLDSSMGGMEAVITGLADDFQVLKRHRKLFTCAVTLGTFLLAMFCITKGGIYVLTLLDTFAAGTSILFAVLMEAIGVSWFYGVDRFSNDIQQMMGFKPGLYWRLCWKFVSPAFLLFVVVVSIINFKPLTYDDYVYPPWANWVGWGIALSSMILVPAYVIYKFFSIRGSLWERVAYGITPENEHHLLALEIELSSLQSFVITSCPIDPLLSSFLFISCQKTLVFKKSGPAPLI

| Compound | Ki [1] | Ratio [2] | Ki [3] | Ratio [4] | Ki [5] |
| --- | --- | --- | --- | --- | --- |
| COC(=O)C1C(c2ccc(-c3cccs3)cc2)CC2CCC1N2C (configuration not stated) | 158 nM | 346 | 0.15 nM | 1050 | 52 nM |
| COC(=O)C1C2CCC(CC1c1ccc(-c3cccs3)cc1)N2 (configuration not stated) | 75.3 nM | 111 | 0.11 nM | 685 | 12.2 nM |
| COC(=O)C1C(c2ccc(-c3ccc(Br)s3)cc2)CC2CCC1N2C (configuration not stated) | 324 nM | 17 | 0.38 nM | 853 | 6.43 nM |
| COC(=O)C1C(c2ccc(-c3ccc(I)s3)cc2)CC2CCC1N2C (configuration not stated) | 1140 nM | 4.9 | 4.56 nM | 249 | 22.1 nM |
| COC(=O)C1C(c2ccc(I)cc2)CC2CCC1N2C (configuration not stated) |  | 2.1 |  | 6.1 |  |
| COC(=O)C1C2CCC(CC1c1ccc(-c3ccsc3)cc1)N2 (configuration not stated) | 39 nM | 28 | 0.23 nM | 170 | 6.4 nM |
| COC(=O)C1C(c2ccc(-c3ccc(Cl)s3)cc2)CC2CCC1N2C (configuration not stated) | 311 nM | 6.9 | 0.64 nM | 486 | 4.42 nM |
| COC(=O)C1C(c2ccc(-c3cscc3Br)cc2)CC2CCC1N2C (configuration not stated) | > 10000 nM | 46 | 4.02 nM | > 2490 | 183 nM |
| COC(=O)C1C(c2ccc(-c3ccsc3)cc2)CC2CCC1N2C (configuration not stated) | 189 nM | 710 | 0.017 nM | 11100 | 12.1 nM |
| COC(=O)C1C(c2ccc(-c3ccc(N)s3)cc2)CC2CCC1N2C (configuration not stated) | > 30000 nM | > 155 | 64.7 nM | > 464 | > 10000 nM |
| COC(=O)C1C(c2ccc(-c3cc([N+](=O)[O-])c([N+](=O)[O-])s3)cc2)CC2CCC1N2C (configuration not stated) | > 10000 nM | > 6 | 5000 nM | > 2 | > 30000 nM |

— ChEMBL document CHEMBL1144325, “Synthesis and monoamine transporter affinity of new 2beta-carbomethoxy-3beta-[4-(substituted thiophenyl)]phenyltropanes: discovery of a selective SERT antagonist with picomolar potency” (Bioorg Med Chem Lett, 2005)
